What was measured:
Assay type in all cases: biochemical
[1] = target: ERK1 (Homo sapiens, UniProt P27361); assay: Kinase profiling ERK1; details: 100 micromolar inhibitor concentration, 100 is no change
From the text: (§1) Any value less that 25 is considered to be highly significant inhibition.

[2] = target: JNK3 (Homo sapiens, UniProt P53779); assay: Kinase profiling JNK3; details: 100 micromolar inhibitor concentration, 100 is no change
From the text: as §1

[3] = target: RSK1 (Homo sapiens, UniProt Q15418); assay: Kinase profiling RSK1; details: 100 micromolar inhibitor concentration, 100 is no change
Chain of RSK1 (Q15418 whole entry, species assumed): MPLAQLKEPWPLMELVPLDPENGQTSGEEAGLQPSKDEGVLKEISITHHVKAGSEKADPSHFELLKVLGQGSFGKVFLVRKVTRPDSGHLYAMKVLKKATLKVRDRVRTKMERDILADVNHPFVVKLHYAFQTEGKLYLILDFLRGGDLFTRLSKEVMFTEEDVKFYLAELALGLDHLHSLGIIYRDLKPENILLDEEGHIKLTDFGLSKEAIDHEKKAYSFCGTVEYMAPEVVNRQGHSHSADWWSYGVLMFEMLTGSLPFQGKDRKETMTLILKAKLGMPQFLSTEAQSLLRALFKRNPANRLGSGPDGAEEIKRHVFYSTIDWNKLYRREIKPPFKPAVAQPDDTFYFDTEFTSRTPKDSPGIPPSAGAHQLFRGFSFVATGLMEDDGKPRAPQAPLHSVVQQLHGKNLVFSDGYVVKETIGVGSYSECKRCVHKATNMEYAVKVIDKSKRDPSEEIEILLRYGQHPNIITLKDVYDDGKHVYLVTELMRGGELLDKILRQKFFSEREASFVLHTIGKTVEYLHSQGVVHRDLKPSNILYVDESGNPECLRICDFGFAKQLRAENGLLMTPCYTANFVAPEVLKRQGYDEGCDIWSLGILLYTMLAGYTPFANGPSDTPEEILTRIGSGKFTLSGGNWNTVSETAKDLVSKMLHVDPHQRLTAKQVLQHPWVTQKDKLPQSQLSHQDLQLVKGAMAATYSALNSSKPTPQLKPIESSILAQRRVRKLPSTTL
From the text: as §1

[4] = target: RSK2 (Homo sapiens, UniProt P51812); assay: Kinase profiling RSK2; details: 100 micromolar inhibitor concentration, 100 is no change
From the text: as §1

[5] = target: T1, PKD1 (Homo sapiens, UniProt Q15139); assay: Kinase profiling PKD1; details: 100 micromolar inhibitor concentration, 100 is no change
T1 sequence (Q15139 1-912): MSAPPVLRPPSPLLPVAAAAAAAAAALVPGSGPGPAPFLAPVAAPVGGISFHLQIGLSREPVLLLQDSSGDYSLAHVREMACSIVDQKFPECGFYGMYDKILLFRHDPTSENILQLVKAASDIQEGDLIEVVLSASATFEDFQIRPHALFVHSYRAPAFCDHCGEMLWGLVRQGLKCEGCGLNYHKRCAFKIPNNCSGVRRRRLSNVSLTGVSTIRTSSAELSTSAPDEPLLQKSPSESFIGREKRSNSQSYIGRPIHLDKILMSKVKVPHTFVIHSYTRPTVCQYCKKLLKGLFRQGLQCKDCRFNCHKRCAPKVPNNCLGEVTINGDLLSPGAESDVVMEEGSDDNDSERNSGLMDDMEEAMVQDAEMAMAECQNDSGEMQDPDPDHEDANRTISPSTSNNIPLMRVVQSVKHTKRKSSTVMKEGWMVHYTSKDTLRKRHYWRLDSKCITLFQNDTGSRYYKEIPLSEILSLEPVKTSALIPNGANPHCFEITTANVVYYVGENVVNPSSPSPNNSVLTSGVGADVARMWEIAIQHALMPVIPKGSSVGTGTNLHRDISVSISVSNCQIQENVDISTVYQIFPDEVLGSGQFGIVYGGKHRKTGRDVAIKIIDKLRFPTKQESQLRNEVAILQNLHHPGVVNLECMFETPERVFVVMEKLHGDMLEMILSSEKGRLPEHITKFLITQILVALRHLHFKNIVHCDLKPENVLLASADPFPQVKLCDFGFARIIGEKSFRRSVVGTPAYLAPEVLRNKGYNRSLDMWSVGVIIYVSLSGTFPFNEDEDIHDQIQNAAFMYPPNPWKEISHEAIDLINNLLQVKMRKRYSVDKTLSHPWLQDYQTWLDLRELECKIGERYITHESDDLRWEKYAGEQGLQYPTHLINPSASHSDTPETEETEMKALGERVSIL
From the text: as §1

[6] = target: CHK2 (Homo sapiens, UniProt O96017); assay: Kinase profiling CHK2; details: 100 micromolar inhibitor concentration, 100 is no change
Chain of CHK2 (O96017 whole entry, species assumed): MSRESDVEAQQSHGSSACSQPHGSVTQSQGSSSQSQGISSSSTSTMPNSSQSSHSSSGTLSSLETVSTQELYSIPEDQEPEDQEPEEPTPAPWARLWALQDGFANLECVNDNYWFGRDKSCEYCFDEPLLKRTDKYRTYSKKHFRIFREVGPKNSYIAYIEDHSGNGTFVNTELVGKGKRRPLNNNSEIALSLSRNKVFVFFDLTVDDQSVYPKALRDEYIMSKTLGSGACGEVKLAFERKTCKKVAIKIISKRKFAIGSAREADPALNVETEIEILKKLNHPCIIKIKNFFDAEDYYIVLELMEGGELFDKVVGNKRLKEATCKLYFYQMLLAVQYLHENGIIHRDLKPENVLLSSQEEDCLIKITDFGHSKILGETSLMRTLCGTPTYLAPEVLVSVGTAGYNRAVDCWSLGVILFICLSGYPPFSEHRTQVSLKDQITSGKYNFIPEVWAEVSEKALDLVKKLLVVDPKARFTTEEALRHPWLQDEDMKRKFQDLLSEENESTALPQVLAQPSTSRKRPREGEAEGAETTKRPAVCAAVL
From the text: as §1

[7] = target: T2, LKB1 (Homo sapiens, UniProt Q15831); assay: Kinase profiling LKB1; details: 100 micromolar inhibitor concentration, 100 is no change
T2 sequence (Q15831 1-433): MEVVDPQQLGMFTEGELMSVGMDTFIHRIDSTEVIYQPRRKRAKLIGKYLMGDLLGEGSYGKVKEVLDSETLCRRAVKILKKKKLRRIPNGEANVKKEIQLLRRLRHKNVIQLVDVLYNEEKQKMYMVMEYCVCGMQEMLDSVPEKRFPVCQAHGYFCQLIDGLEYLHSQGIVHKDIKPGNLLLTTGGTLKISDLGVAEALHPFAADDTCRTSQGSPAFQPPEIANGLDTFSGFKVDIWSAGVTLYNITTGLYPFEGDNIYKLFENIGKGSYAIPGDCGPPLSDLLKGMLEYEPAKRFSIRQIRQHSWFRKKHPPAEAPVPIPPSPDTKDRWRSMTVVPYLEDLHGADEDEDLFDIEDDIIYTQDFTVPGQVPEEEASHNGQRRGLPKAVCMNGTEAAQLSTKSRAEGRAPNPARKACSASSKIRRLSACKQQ
T2 sequence (Q7RTN6 1-431 partner): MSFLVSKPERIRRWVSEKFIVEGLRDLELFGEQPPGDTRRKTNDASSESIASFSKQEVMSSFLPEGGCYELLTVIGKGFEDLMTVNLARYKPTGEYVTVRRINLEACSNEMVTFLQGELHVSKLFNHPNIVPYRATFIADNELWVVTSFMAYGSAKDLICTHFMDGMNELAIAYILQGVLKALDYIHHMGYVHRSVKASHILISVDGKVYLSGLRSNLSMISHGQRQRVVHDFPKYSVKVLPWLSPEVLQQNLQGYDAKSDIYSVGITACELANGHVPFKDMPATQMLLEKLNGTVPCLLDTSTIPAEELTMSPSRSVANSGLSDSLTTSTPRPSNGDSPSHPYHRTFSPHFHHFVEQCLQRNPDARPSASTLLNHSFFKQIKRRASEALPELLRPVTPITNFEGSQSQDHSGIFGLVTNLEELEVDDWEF
T2 sequence (Q9Y376 1-341 partner): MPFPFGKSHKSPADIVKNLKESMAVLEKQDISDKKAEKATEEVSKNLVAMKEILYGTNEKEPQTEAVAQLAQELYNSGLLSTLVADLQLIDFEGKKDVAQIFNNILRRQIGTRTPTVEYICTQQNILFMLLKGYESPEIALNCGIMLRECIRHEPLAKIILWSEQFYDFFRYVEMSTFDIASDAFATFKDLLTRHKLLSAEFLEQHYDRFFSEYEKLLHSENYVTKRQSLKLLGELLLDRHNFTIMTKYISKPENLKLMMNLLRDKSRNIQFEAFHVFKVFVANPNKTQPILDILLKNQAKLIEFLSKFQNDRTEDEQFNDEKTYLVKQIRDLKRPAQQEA
From the text: as §1

[8] = system: CK2; assay: Kinase profiling CK2; details: 100 micromolar inhibitor concentration; 100 is no change
From the text: as §1

[9] = target: EF2K (Homo sapiens, UniProt O00418); assay: Kinase profiling EF2K; details: 100 micromolar inhibitor concentration, 100 is no change
From the text: as §1

[10] = target: MLK1 (Homo sapiens, UniProt P80192); assay: Kinase profiling MLK1; details: 100 micromolar inhibitor concentration, 100 is no change
From the text: as §1

[11] = target: RIPK2 (Homo sapiens, UniProt O43353); assay: Kinase profiling RIPK2; details: 100 micromolar inhibitor concentration, 100 is no change
Chain of RIPK2 (O43353 whole entry, species assumed): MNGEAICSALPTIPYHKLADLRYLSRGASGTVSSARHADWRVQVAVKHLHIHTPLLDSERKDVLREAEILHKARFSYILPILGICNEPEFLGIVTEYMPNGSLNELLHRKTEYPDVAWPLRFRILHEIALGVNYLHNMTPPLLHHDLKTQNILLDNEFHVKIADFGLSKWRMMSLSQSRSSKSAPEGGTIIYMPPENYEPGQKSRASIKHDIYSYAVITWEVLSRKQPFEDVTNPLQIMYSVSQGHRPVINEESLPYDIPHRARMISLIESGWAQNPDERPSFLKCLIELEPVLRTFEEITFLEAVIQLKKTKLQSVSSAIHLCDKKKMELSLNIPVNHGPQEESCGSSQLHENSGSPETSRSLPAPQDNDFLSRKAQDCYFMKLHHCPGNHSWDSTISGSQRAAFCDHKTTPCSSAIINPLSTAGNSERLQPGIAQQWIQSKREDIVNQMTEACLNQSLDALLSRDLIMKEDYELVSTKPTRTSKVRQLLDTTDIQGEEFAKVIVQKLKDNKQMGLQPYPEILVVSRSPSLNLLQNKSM
From the text: as §1

[12] = target: BTK (Homo sapiens, UniProt Q06187); assay: Kinase profiling BTK; details: 100 micromolar inhibitor concentration, 100 is no change
Chain of BTK (Q06187 whole entry, species assumed): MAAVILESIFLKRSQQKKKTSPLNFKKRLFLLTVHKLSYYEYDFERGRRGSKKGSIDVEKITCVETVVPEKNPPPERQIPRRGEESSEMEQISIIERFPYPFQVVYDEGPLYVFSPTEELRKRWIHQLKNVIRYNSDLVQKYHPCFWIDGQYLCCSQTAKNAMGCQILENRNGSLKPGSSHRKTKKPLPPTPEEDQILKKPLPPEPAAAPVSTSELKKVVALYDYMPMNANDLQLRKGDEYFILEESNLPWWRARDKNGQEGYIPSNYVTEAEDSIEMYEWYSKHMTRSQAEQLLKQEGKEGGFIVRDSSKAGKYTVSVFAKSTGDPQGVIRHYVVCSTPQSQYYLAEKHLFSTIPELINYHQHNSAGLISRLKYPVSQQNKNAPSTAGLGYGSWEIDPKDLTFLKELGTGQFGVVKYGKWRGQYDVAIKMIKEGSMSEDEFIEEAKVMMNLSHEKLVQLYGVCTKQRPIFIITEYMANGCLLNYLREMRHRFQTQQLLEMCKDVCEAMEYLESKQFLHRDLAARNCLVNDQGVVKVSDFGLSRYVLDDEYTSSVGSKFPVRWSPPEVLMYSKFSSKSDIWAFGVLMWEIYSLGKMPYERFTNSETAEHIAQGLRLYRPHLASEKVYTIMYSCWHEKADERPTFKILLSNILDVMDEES
From the text: as §1

[13] = target: TIE2 (Homo sapiens, UniProt Q02763); assay: Kinase profiling TIE2; details: 100 micromolar inhibitor concentration, 100 is no change
Chain of TIE2 (Q02763 23-1124, species assumed): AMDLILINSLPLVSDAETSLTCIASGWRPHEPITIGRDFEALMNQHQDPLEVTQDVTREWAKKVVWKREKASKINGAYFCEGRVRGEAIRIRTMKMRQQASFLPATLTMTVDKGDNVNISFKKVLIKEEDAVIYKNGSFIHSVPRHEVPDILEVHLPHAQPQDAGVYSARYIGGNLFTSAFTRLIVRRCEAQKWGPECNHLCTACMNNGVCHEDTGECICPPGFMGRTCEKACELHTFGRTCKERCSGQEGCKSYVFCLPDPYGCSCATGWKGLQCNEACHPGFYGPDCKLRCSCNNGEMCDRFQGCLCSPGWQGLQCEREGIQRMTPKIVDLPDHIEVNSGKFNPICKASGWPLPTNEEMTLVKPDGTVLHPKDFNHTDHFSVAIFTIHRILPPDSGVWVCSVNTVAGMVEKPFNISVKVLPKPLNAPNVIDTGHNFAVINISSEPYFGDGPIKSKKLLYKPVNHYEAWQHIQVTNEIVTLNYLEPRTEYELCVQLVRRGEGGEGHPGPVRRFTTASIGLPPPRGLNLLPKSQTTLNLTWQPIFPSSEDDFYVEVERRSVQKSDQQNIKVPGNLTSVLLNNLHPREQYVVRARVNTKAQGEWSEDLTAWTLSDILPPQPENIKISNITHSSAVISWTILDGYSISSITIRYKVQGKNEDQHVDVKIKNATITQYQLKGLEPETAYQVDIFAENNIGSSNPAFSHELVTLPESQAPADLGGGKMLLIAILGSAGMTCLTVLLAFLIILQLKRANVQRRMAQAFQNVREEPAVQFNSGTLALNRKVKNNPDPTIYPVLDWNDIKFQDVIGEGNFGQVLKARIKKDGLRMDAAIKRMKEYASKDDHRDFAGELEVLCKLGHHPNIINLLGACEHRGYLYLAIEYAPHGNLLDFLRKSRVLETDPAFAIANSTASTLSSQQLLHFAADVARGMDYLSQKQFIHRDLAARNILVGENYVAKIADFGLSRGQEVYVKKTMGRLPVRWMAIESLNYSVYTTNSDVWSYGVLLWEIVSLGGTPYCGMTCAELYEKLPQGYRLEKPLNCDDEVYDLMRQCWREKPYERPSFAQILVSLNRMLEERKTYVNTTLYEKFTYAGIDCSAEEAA
From the text: as §1

[14] = target: EPH-A2 (Homo sapiens, UniProt P29317); assay: Kinase profiling EPH-A2; details: 100 micromolar inhibitor concentration, 100 is no change
From the text: as §1

Chain of ERK1 (P27361 whole entry, species assumed): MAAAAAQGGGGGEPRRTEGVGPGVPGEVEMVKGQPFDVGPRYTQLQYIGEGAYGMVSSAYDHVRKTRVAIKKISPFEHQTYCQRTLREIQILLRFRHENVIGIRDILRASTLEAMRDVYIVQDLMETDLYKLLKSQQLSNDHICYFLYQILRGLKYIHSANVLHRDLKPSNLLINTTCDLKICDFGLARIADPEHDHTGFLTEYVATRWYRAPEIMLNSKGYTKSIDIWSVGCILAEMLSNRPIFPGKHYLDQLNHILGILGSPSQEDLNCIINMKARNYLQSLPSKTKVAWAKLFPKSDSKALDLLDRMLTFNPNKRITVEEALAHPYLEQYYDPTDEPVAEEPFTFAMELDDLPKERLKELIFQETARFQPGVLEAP
Chain of JNK3 (P53779 whole entry, species assumed): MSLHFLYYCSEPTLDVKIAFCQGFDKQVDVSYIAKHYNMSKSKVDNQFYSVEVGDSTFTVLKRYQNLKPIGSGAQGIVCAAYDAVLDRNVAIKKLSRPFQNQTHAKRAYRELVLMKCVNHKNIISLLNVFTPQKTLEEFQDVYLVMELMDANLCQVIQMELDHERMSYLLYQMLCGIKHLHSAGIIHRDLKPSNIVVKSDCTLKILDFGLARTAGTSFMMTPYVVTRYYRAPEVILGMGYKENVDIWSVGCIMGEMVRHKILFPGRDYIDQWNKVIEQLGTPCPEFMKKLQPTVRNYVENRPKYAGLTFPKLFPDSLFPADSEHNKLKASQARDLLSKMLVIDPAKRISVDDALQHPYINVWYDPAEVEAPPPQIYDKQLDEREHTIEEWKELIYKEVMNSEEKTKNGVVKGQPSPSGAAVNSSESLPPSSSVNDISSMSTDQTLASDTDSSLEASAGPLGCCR

SMILES	residual kinase activity, ERK1 [1]	residual kinase activity, JNK3 [2]	residual kinase activity, RSK1 [3]	residual kinase activity, RSK2 [4]	residual kinase activity, PKD1 [5]	residual kinase activity, CHK2 [6]	residual kinase activity, LKB1 [7]	residual kinase activity, CK2 [8]	residual kinase activity, EF2K [9]	residual kinase activity, MLK1 [10]	residual kinase activity, RIPK2 [11]	residual kinase activity, BTK [12]	residual kinase activity, TIE2 [13]	residual kinase activity, EPH-A2 [14]	also measured
O=C(Nc1nc2cc(O)ccc2s1)c1ccccn1 [Compound 03-13]	97	67	70	72	76	75	45	78	94	68	27	90	106	81	–
COc1ccc2sc(NC(C)=O)nc2c1 [Compound 03-21]	–	–	–	–	–	–	–	87	–	–	–	–	–	–	remaining activity at 100 µM ([1]; read-out: residual kinase activity, ERK1): 87%; remaining activity at 100 µM ([2]; read-out: residual kinase activity, JNK3): 80%; remaining activity at 100 µM ([3]; read-out: residual kinase activity, RSK1): 93%; remaining activity at 100 µM ([4]; read-out: residual kinase activity, RSK2): 94%; remaining activity at 100 µM ([5]; read-out: residual kinase activity, PKD1): 59%; remaining activity at 100 µM ([6]; read-out: residual kinase activity, CHK2): 58%; remaining activity at 100 µM ([7]; read-out: residual kinase activity, LKB1): 93%; remaining activity at 100 µM ([9]; read-out: residual kinase activity, EF2K): 105%; remaining activity at 100 µM ([10]; read-out: residual kinase activity, MLK1): 84%; remaining activity at 100 µM ([11]; read-out: residual kinase activity, RIPK2): 29%; remaining activity at 100 µM ([12]; read-out: residual kinase activity, BTK): 102%; remaining activity at 100 µM ([13]; read-out: residual kinase activity, TIE2): 91%; remaining activity at 100 µM ([14]; read-out: residual kinase activity, EPH-A2): 89%
CC(=O)Nc1nc2ccccc2s1 [Compound 03-32]	83	66	86	105	105	87	97	96	89	72	70	100	112	111	–
O=C(Nc1nc2cc(O)ccc2s1)c1cccnc1 [Compound 03-33]	93	76	73	85	71	46	83	88	106	61	20	110	100	108	–
